Test results taken from US20060025458A1, “Alkylammonium compounds as antifungal and antitrypanosomal agents” (University of Connecticut, priority 2004, published 2006).

Key:
[1] = test system: endogenous PtdSer decarboxylase activity; test: Serine labeling: PtdEtn formation from PtdSer in P. falciparum-infected erythrocytes; type: cell-based, Plasmodium falciparum
Description: FIG. 10B. Effect of G25 on PtdEtn and PtdSer synthesis from serine. 5-6×10^7 synchronized P. falciparum-infected erythrocytes (7% trophozoite stage) were pre-incubated at 4% haematocrit for 1 h in RPMI-based medium containing the indicated concentration of G25 before adding 10 μM [^14C]-serine (57 mCi/mmol). After incubation at 37° C. for 3 h, the cellular lipids were extracted and fractionated on TLC plates for quantification of radioactivity in PtdSer (black diamonds), and PtdEtn (white circles).
(§1) Labeling Studies and Phospholipid Analysis in P. falciparum: Nigerian strains of P. falciparum were asexually cultured in the presence of basic medium (RPMI 1640 supplemented with 25 mM Hepes, pH 7.4) and 10% AB^+ human serum (Trager and Jensen, 1976). Parasite synchronization was obtained with three successive 5% sorbitol treatments (Lambros and Vanderberg, 1979). Synchronized P. falciparum-infected erythrocytes (7-10% parasitemia, trophozoites) were pre-incubated for 1 hour at 37° C. at 4% hematocrit in 2 ml (final volume) basic medium in the absence or the presence of different concentrations of the compound G25. The appropriate radioactive precursor of lipid metabolism was added followed by further 3 h of incubation. […] The silica gel of the lipid spots were scraped directly into scintillation vials containing 3 ml of liquid-scintillation fluid and counted in a Beckman LS 5000 spectrophotometer. The amount of labeled precursors incorporated into cellular lipids (nmol×10^7 cell^−1×h^−1) was computed on the basis of radioactivity incorporated into lipids and the specific activity of the precursors in the incubation medium.
The possible inhibition of PtdSer decarboxylase activity in P. falciparum by G25 was investigated. P. falciparum-infected erythrocytes were labeled with radiolabeled serine, which is readily incorporated into PtdSer, in the presence or absence of increasing concentrations of G25, and the effect of this compound on the parasite endogenous PtdSer decarboxylase activity was measured by following the formation of PtdEtn from PtdSer (FIG. 10B). […]

[2] = test system: de novo CDP-choline pathway (PtdCho synthesis from choline); test: Incorporation of labeled choline into PtdCho in P. falciparum-infected erythrocytes; type: cell-based, Plasmodium falciparum
Description: FIG. 10A. […] 5-6×10^7 synchronized P. falciparum-infected erythrocytes (7% trophozoite stage) were pre-incubated at 4% haematocrit for 1 h in RPMI-based medium containing the indicated concentration of G25 before adding 30 μM [methyl-^3H]-choline (334 mCi/mmol). After incubation at 37° C. for 3 h, the cellular lipids were extracted and fractionated on TLC plates for quantification of radioactivity in PtdCho (black squares).
as §1, with “incubation. Radioactive precursors were used as follows: 30 μM [methyl-^3H]-choline (334 mCi/mmol), 2 μM [^3H]-ethanolamine (2 Ci/mmol) and 10 μM [3-^14C]-serine (57 mCi/mmol). Following incubation with radiolabeled precursors, cells were concentrated by centrifugation at 1,200×g for 5 min at 4° C., washed twice and the cellular lipids were extracted by a mixture of chloroform/methanol (Folch, et al., 1957) and the organic phase was evaporated under air.” for “incubation.”, “medium. […]” for “medium.”

[3] = test system: S. cerevisiae wild type and knockouts of PtdCho biosynthesis genes; test: Plate growth limiting dilution assay of yeast phospholipid mutants with G25; type: cell-based, Saccharomyces cerevisiae; details: 5 μM G25, plate assay
Description: FIG. 9. Sensitivity to G25 of wild type and mutants affected in different steps of PtdCho biosynthesis. Plate growth limiting dilution assays were performed as described in Materials and Methods in the absence or the presence of 5 μM of G25. The strains and genes deleted in the strains used are described in “Material and Methods”.
Strains and Growth Conditions: Wild-type (BY4741: Mata his3Δ1 leu2Δ0 met15Δ0 ura3Δ0) and mutant (hnm1Δ, psd1Δ, cki1Δ, pem1Δ, ept1Δ, cpt1Δ, eki1Δ, psd2Δ, pct1Δ, ect1Δ, pem2Δ) S. cerevisiae strains used in this study were purchased from Research Genetics (Invitrogen, USA). These strains were grown on YPD (1% yeast extract, 2% dextrose and 2% peptone) or synthetic complete medium (SD, 1.7% yeast nitrogen base, 5% ammonium sulfate and 2% dextrose). The Nigerian strain of P. falciparum was propagated in human red blood cells at 4% hematocrit by the method of Trager and Jensen (1976). Plate growth assays were performed by growing wild-type and mutant yeast strains in YPD to mid-log phase. Cultures were serially diluted 1:10 starting with a density of 3×10^7 cells/ml. The growth of cells was monitored by spotting 3 μl of each dilution onto solid medium in the absence or presence of 5 μM of G25.
Sensitivity of mutants affected in phospholipid metabolism to choline analogs. […] However, the steps in the phospholipid biosynthesis pathways that are specifically targeted by these compounds are not yet known. To assess whether the mode of action of G25 is linked to disruption of phospholipid metabolism, yeast was used as a surrogate system to compare the sensitivity to G25 of the wild-type strain and eleven individual knockouts in the CDP-choline, CDP-ethanolamine and CDP-DAG pathways. […] No resistance was conferred by loss of the PtdEtn methyltransferases, Pem1 and Pem2, or the enzymes of the CDP-ethanolamine pathway. Furthermore, unlike psd1[…] strain, loss of the Golgi/vacuole PtdSer decarboxylase, Psd2, which synthesizes 5% of the PtdEtn pool only, had no effect on G25 sensitivity.

[4] = test system: de novo biosynthesis of PtdEtn from ethanolamine; test: Incorporation of radiolabeled ethanolamine into PtdEtn in P. falciparum-infected erythrocytes; type: cell-based, Plasmodium falciparum; details: concentrations up to 100 μM
Description: as §1, with “incubation. Radioactive precursors were used as follows: 30 μM [methyl-^3H]-choline (334 mCi/mmol), 2 μM [^3H]-ethanolamine (2 Ci/mmol) and 10 μM [3-^14C]-serine (57 mCi/mmol).” for “incubation.”, “medium. […]” for “medium.”

[5] = test system: P. falciparum-infected erythrocytes; details: after 3 h incubation; cited from earlier work
[6] = test system: P. falciparum and P. cynomolgi; details: very low doses; cited from earlier work

## C[N+]1(CCCCCCCCCCCCCCCC[N+]2(C)CCCC2)CCCC1.[Br-].[Br-] [G25, 1,16-hexadecamethylenebis[N-methylpyrrolidinium]dibromide]
[1]; 100 μM G25
  decrease in the pool of PtdEtn formed from PtdSer: 77%
  effect on first step of the CDP-DAG pathway catalyzed by PtdSer synthase: no effect
[1]; increasing concentrations of G25
  total incorporation of serine: not affected
[2]; 1 μM G25
  inhibition of PtdCho biosynthesis: 56%
[2]; 10 μM G25
  inhibition of PtdCho biosynthesis: nearly complete inhibition
[2]; trophozoite-infected erythrocytes
  concentration causing a significant decrease of PtdCho biosynthesis: higher than 0.1 μM
[3]
  effect of loss of Psd2 on sensitivity: no effect
  resistance conferred by loss of Cki1, Cpt1, Pct1 and Hnm1 (CDP-choline pathway): substantial resistance
  resistance conferred by loss of Pem1, Pem2 or CDP-ethanolamine pathway enzymes: No resistance
  resistance of psd1 deletion strain: highly resistant
[4]
  effect on incorporation of radiolabeled ethanolamine into PtdEtn: no effect
[5]
  cellular accumulation ratio (CAR): ~300
[6]
  malaria infection in monkeys: cleared malaria infection
